The Ki is a dissociation constant, usually derived from enzyme kinetics or from competition with a known ligand.

Experimental findings from US11497731B2, “β-lactamase inhibitor” (NATIONAL UNIVERSITY CORPORATION TOKAI NATIONAL HIGHER …, priority 2018, dated 2022) are described below.

The subject of series [1] is strain of Escherichia coli in which a plasmid encoding a class B β-lactamase (IMP-1) was introduced. Nature of the series: Mouse abdominal infection model, E. coli IMP-1 strain. The class given is in vivo, mice. The procedure: After mice were infected with a laboratory strain (a strain of Escherichia coli in which a plasmid encoding a class B β-lactamase (IMP-1) was introduced), a test substance (compound A) was administered; and survival was observed. Specifically, the animal study was performed as follows.
The laboratory strain grown overnight on a Mueller-Hinton agar medium was scraped with a sterile swab, suspended in physiological saline, adjusted to 2-5×10^8 CFU/mL, and mixed with an equal amount of a 10% mucin solution (1-2.5×10^8 CFU/mL) to prepare a bacterial liquid. Mice (Crl:CD1(ICR), male, 4 weeks old (Charles River Laboratories Japan, Inc.)) acclimated for 4 days after arrival were weighed, and then infected by intraperitoneal administration of 250 μL of the prepared bacterial liquid per mouse. An antimicrobial drug (meropenem trihydrate (WAKO 137-15674)) and the test substance were dissolved in physiological saline. A first intraperitoneal administration of the antimicrobial drug (0.2 mg/kg) and/or the test substance (100 mg/kg) was performed 1 hour after infection. A second administration was performed 3 hours after infection, in the same manner as the first administration (up to this point, day 0). […]

Series [2] deals with bacteria (K. pneumoniae) in which a plasmid encoding NDM and VIM was introduced. Kind of series: Mouse abdominal infection model, K. pneumoniae NDM and VIM strain. The class given is in vivo, mice. Particulars: test substance 10 mg/kg. How it is done: The laboratory strain grown overnight on a Mueller-Hinton agar medium was scraped with a sterile swab, suspended in physiological saline, adjusted to 2-5×10^8 CFU/mL, and mixed with an equal amount of a 10% mucin solution (1-2.5×10^8 CFU/mL) to prepare a bacterial liquid. Mice (Crl:CD1(ICR), male, 4 weeks old (Charles River Laboratories Japan, Inc.)) acclimated for 4 days after arrival were weighed, and then infected by intraperitoneal administration of 250 μL of the prepared bacterial liquid per mouse. An antimicrobial drug (meropenem trihydrate (WAKO 137-15674)) and the test substance were dissolved in physiological saline. A first intraperitoneal administration of the antimicrobial drug (0.2 mg/kg) and/or the test substance (100 mg/kg) was performed 1 hour after infection. A second administration was performed 3 hours after infection, in the same manner as the first administration (up to this point, day 0).
The animal study was performed in the same manner as in Test Example 12, except that in addition to a strain of Escherichia coli in which a plasmid encoding a class B lactamase (IMP-1) was introduced, bacteria (K. pneumoniae) in which a plasmid encoding NDM and VIM was introduced were used as a laboratory strain, compound I was administered as a test substance, […], and the dosage of the test substance was 10 mg/kg. […]

The target in series [3] is IMP-1 (Serratia marcescens, UniProt P52699). Nature of the series: Inhibition constant (Ki) measurement test, IMP-1. The format is biochemical. The procedure: (§1) The inhibition constant (Ki) measurement test was performed in the following manner. The inhibition constant (Ki) was measured using various metallo-β-lactamases (final concentration: 10 nM). The imipenem decomposition activity (Δabs/min) at each point under the conditions of absorbance: 298 nm and temperature: 30° C. was measured by varying the concentration of imipenem as a substrate and the concentrations of test substances (compounds A to E) as inhibitors. Each measured value was fitted to the Lineweaver-Burk plot equation to calculate Ki.
IMP-1, sequence (P52699 19-246, looked up, species assumed): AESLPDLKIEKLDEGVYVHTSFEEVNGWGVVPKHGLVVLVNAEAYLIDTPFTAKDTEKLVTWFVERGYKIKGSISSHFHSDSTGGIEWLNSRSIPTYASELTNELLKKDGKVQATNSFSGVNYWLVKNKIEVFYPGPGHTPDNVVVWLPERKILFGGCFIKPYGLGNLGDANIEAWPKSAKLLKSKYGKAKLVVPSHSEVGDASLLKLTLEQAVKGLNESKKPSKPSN
(§2) The test was performed in the same manner as in Test Example 6, except that X2a, X2b, X2c, X2d, X3a, and X4 were used as test substances (inhibitors).

In series [4] the target is VIM-2 (Escherichia coli, UniProt Q5U7L7). Kind of series: Inhibition constant (Ki) measurement test, VIM-2. The format is biochemical. How it is done: as §1, §2
Series [5] addresses NDM-1 (Klebsiella pneumoniae, UniProt C7C422). Nature of the series: Inhibition constant (Ki) measurement test, NDM-1. The class given is biochemical. How it is done:
as §1, §2

Series [6] relates to strains of Enterobacteriaceae bacteria that produce class B β-lactamases. Nature of the series: Drug susceptibility test 2. The format is cell-based. As to conditions: addition of compound A.
In series [7] the test system is class B β-lactamase (IMP-1, NDM-1, or VIM-2). Nature of the series: β-Lactamase inhibitory activity measurement test (imipenem decomposition). The format is biochemical. Particulars: test substance 0, 1, 10, 100 μM; enzyme 10 nM; imipenem 100 μM. How it is done: Each individual class B β-lactamase (IMP-1, NDM-1, or VIM-2; final concentration: 10 nM), imipenem (final concentration: 100 μM), and each individual test substance (compound A or compound Z shown below; final concentrations: 0, 1, 10, 100 μM) were mixed in an HEPES buffer. The imipenem decomposition activity (Dabs/min) under the conditions of absorbance: 298 nm and temperature: 30° C. was measured. The imipenem decomposition activity when no test substance was added was defined as 100%, and the imipenem residual decomposition activity when each test substance was individually added was plotted.

For series [8], the system named is bacteria into which a plasmid encoding NDM-1 was introduced (pBCSK (+)/E. coli DH5a). Nature of the series: Drug susceptibility test (MIC), NDM-1-producing strain. Particulars: for MIC: Escherichia coli. The format is cell-based. The procedure: (§3) Plates for drug susceptibility test measurement were prepared by using 96- or 384-well U-bottom plates, a Mueller-Hinton liquid medium, and antimicrobial drugs (ceftazidime (CAZ), imipenem (IPM), meropenem (MPM), doripenem (DPM), and biapenem (BPM)). A 1/2 antimicrobial drug dilution series was made up to well 11 of, for example, a 96-well U-bottom plate so that the leftmost well 1 of row A contained an antimicrobial drug at the maximum concentration, the antimicrobial drug concentration in well 2 to the right of well 1 was 1/2 of the maximum concentration, the antimicrobial drug concentration in well 3 to the right of well 2 was 1/4 of the maximum concentration, and so on. […] An antimicrobial drug dilution series was made in each of rows B and C in the same manner as in row A. Further, 10 μg/mL and 50 μg/mL of a test substance (compound A) were added to row B and row C, respectively (FIG. 1).
(§4) Bacteria into which a plasmid encoding a class B β-lactamase (metallo-β-lactamase (MBL): NDM-1, or VIM-2) was introduced (pBCSK (+)/E. coli DH5a) were used as test bacteria. The test bacteria were adjusted to 10^8 cfu/mL with a Mueller-Hinton medium. Further, the test bacteria were diluted 10-fold with a Mueller-Hinton medium (10^7 cfu/mL). 5 μl of the test bacteria was collected and inoculated into the plates for drug susceptibility test measurement. After overnight culture at 35° C., the growth of the test bacteria was visually checked. The concentration of the antimicrobial drug in a well containing the lowest concentration of the antimicrobial drug among the wells in which no growth of the test bacteria was confirmed was defined as the minimal inhibitory concentration value (FIG. 1).
(§5) The drug susceptibility test was performed in the same manner as in Test Example 1, except that compounds A to C and E to I were used as test substances.
(§6) The test was performed in the same manner as in Test Example 1, except that X2a, X2b, X2c, X2d, X3a, and X4 were used as test substances (inhibitors). The inhibitor concentration was 10 μg/mL.

Series [9] relates to HeLa cells. Kind of series: Toxicity evaluation test (MTT assay). The class given is cell-based. Particulars: various concentrations. The procedure: Various concentrations of a test substance (compound A) or staurosporine were added to HeLa cells, and live cells were counted using an MTT assay kit (Promega Cat No. G4000).
On the technique in general: Tetrazolium assays rely on reduction of a dye to a coloured formazan, in cell work by metabolically active cells.

A short description of series [10]: Reverse mutation test (Ames test). The class given is cell-based. As to conditions: entrusted to UBE Scientific Analysis Laboratory, Inc. From the text:
Compound A was used as a test substance.

The subject of series [11] is β-lactamase-producing bacteria. Kind of series: Drug susceptibility tests, summary statements over all strains. The class given is cell-based, E. coli. Particulars: addition of the compound. The procedure: as §3, §4
Series [12] relates to strains of Acinetobacter that produce class B β-lactamases. Nature of the series: Drug susceptibility test 3. The class given is cell-based. Particulars: addition of compound A.
In series [13] the test system is Empty vector (no class B lactamase produced), pBCSK (+)/E. coli DH5a. Nature of the series: Drug susceptibility test (MIC), empty vector strain. The class given is cell-based. As to conditions: Escherichia coli.
Series [14] has as its system bacteria into which a plasmid encoding VIM-2 was introduced (pBCSK (+)/E. coli DH5a). Nature of the series: Drug susceptibility test (MIC), VIM-2-producing strain. The class given is cell-based. Particulars: for MIC: Escherichia coli. How it is done:
as §3, §4, §5, §6

The subject of series [15] is bacteria into which a plasmid encoding IMP-1 was introduced (pBCSK (+)/E. coli DH5a). Kind of series: Drug susceptibility test (MIC), IMP-1-producing strain. The class given is cell-based. As to conditions: MIC of meropenem with inhibitor 10 μg/mL.
Series [16] concerns β-lactamase. Kind of series: Inhibition constant (Ki) tests, summary statements over all enzymes. The format is biochemical. The procedure:
as §1, §2

Series [17] deals with metallo-β-lactamase (IMP-1) (Serratia marcescens, UniProt P52699). Kind of series: Enzyme activity measurement test (imipenem decomposition). The class given is biochemical. How it is done: A metallo-β-lactamase (IMP-1) (final concentration: 10 nM), and imipenem (final concentration: 100 μM) as a substrate were used. The imipenem decomposition activity (Dabs/min) at each point under the conditions of absorbance: 298 nm and temperature: 30° C. was measured by varying the concentrations of test substances (compounds Nos. 9-7, 9-8, and 9-9) as inhibitors (0 μM, 10 μM, and 100 μM). The activity when no test substance was added was defined as 100%, and the relative activity value when each test substance was individually added was calculated.
metallo-β-lactamase (IMP-1), sequence (P52699 19-246, looked up, species assumed): as above

[18] abbreviates: imipenem substrate, enzyme 10 nM, 30° C., Lineweaver-Burk, read-out: Inhibition constant Ki IMP-1.
Where [19] appears, read: imipenem substrate, enzyme 10 nM, 30° C., Lineweaver-Burk, read-out: Inhibition constant Ki VIM-2.
Where [20] appears, read: imipenem substrate, enzyme 10 nM, 30° C., Lineweaver-Burk, read-out: Inhibition constant Ki NDM-1.
Setting [21] is: read-out: MIC CAZ + compound A (10 μg/ml).
Where [22] appears, read: read-out: MIC CAZ + compound A (50 μg/ml).
[23] abbreviates: read-out: MIC MPM + compound A (10 μg/ml).
Where [24] appears, read: read-out: MIC MPM + compound A (50 μg/ml).

Where two headings read alike, the source gives them in different places.

NDM-1, sequence (C7C422 29-270, looked up, species assumed): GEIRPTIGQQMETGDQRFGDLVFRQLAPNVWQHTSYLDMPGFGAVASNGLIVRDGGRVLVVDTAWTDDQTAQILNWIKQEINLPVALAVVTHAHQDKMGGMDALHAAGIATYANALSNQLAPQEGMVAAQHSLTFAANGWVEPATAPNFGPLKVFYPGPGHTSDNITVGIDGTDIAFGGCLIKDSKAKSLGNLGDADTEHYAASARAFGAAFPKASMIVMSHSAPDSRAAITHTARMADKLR

Consider `CCc1c(C(=O)O)c(S(N)(=O)=O)c(CC)n1C` [Compound I], for which the “survival rate (FIG. 11)” value in series [1] (antimicrobial drug 0.8 mg/kg or 4 mg/kg, test substance 10 mg/kg) is recorded as “notably improved”. In series [2] (antimicrobial drug 0.8 mg/kg or 4 mg/kg), the “survival rate (FIG. 12)” value is “notably improved”. Also, the Ki in [3] (setting [18]) was 2140 nM; in series [4] (setting [19]), 20 nM; in series [5] (setting [20]) it was 840 nM.
Regarding `Cc1oc(C)c(S(N)(=O)=O)c1C(=O)O` [Compound A], the “survival rate (FIG. 10)” value in [1] (meropenem 0.2 mg/kg and test substance 100 mg/kg intraperitoneal, 1 and 3 hours after infection) is on record as “notably improved”. Moreover, in series [6], the “effect on MICs of the antimicrobial drugs (FIG. 3)” value is “decreases the MICs”. Also, the “β-lactamase inhibition (imipenem residual decomposition activity, FIG. 2)” value in series [7] is on record as “inhibit β-lactamases”. Further, the MIC amounted to 256 µg/mL in series [8] (setting [21]); 64 µg/mL in series [8] (setting [22]); 0.25 µg/mL in [8] (setting [23]); 0.25 µg/mL in [13] (setting [21]); 0.25 µg/mL in [13] (setting [22]); 0.016 µg/mL in series [13] (setting [23]). The MIC turned out to be 0.016 µg/mL in series [13] (setting [24]), 1 µg/mL in [14] (setting [21]), 0.031 µg/mL in series [14] (setting [23]) and 0.031 µg/mL in [14] (setting [24]). Also, the “toxicity (live cells, MTT, FIG. 9)” value in series [9] was “very low”. The Ames test result in series [10] was “negative”. The Ki is 220 nM in [3] (setting [18]), 2800 nM in [4] (setting [19]) and 9820 nM in [5] (setting [20]). Moreover, in series [11], the “effect on MICs of the antimicrobial drugs (statement on Tables 1, 2, 4)” value is on record as “decreases the MICs”. In addition, the “effect on MICs of the antimicrobial drugs (FIG. 4)” value in series [12] is on record as “decreases the MICs”.
Consider `CCc1c(S(N)(=O)=O)c(C(=O)O)c(-c2ccccc2)n1C` [Compound X2d], for which the “Meropenem MIC NDM-1-producing strain” value in series [8] (MIC of meropenem with inhibitor 10 μg/mL) came out at 0.0625 µg/mL. For the same compound, the “survival rate (FIG. 13)” value in [2] (antimicrobial drug 2 mg/kg or 8 mg/kg) is “notably improved”. Besides, the “Meropenem MIC IMP1-producing strain” value in series [15] came to 0.031 µg/mL. In addition, the Ki in series [3] (Test Example 11, same manner as Test Example 6, read-out: Enzymatic Inhibition Effect Ki IMP-1) came to 110 nM; in series [4] (Test Example 11, same manner as Test Example 6, read-out: Enzymatic Inhibition Effect Ki VIM-2) it was 33 nM; in series [5] (Test Example 11, same manner as Test Example 6, read-out: Enzymatic Inhibition Effect Ki NDM-1), 80 nM. Moreover, in [11], the “effect on MICs of the antimicrobial drugs (statement on Tables 1, 2, 4)” value is listed as “decreases the MICs”. Further, in series [14] (MIC of ceftazidime with inhibitor 10 μg/mL), the “Ceftazidime MIC VIM-2-producing strain” value was 1 µg/mL. Moreover, the “β-lactamase activity inhibition (statement on Tables 2, 5)” value in [16] was “inhibits β-lactamase activity”.
With `Cc1oc(C)c(S(=O)(=O)N2CC3CCCC3C2)c1C(=O)O` (centres unmarked) [9-7], the “β-lactamase activity inhibition (statement on Table 3)” value in series [17] is recorded as “inhibits β-lactamase activity”.
